Assay results: US5434186A, “Carboxylic acid leukotriene B4 antagonists” (Hoffmann-La Roche Inc., priority 1993, dated 1995)
Where two headings read alike, the source gives them in different places.

What was measured:
[1] = test system: LTB4 -induced skin inflammation; assay: LTB4 Induced Skin Inflammation (hairless guinea pig); assay type: in vivo; conditions: for ED50: Cavia porcellus; for ID50, LTB4-induced skin inflammation, coinjection with LTB4: co-injection, 120 ng LTB4 intradermal
Method: Skin inflammation is induced in the hairless guinea pig by the intradermal injection of 50 μl Gey's salt solution/10% DMSO containing 120 ng LTB4. Injections are performed along the dorsal skin of the animals. Test compounds are administered at various times by co-injection, intravenous or oral administration. The test animals are euthanized four to six hours after the LTB4 injection and uniform skin punches are prepared from the injection sites. Punches are homogenized in 0.5% hexadecyltrimethyl ammonium bromide for one minute and centrifuged for 20 minutes at 14,000× g. Leukocyte accumulation is measured by assaying for myeloperoxidase activity in a kinetic assay using dimethoxybenzidine as the substrate. […] Skin injected with 120 ng LTB4 can show myeloperoxidase levels of 0.30-0.40 U/punch. LTB4 induced leukocyte accumulation is confirmed histologically in hematoxylin/eosin stained sections.

[2] = test system: LTB4 -induced bronchoconstriction; assay: Guinea Pig Bronchoconstriction In Vivo (LTB4-induced); set-up: species or system guinea pig (Hartley strain); conditions: Cavia porcellus, iv, i.v. five minutes prior to LTB4 (1 μg/kg i.v.), read-out: ID50 (mg/kg), i.v., LTB4-induced bronchoconstriction
Method: Male guinea pigs (Hartley strain) weighing 300 to 500 g are anesthetized with urethane (2 g/kg) intraperitoneally and a polyethylene cannula is inserted into the jugular vein for drug administration. Tracheal pressure is recorded from a cannula inserted into the trachea and connected to a Gould P23ID pressure transducer. After surgical preparation of the animals, a period of time is allowed for pulmonary functions to stabilize. The test compound is administered intravenously five minutes prior to leukotriene B4 administration according to the following protocol: Animals are paralyzed with succinylcholine (1.2 mg/kg i.v.) and mechanically respirated (Harvard rodent respirator) at 40 breaths/minute and 2.5 cc tidal volume. Propranolol (0.1 mg/kg) is then administered intravenously one minute prior to leukotriene B4 administration. Animals are then challenged with an intermediate constrictory dose of leukotriene B4 (1 μg/kg) delivered intravenously.
The change (cm H2 O) between pre and peak ventilatory pressure readings is averaged for five control and five drug treated animals. The percent inhibition is calculated from the formula:
((Control-Drug Treated)/Control)×100
When representative compounds of formula I of the invention were utilized as the test compounds the following results were obtained: […]

[3] = test system: LTB4 mediated calcium fluxes in human neutrophils; assay: Calcium Flux Assay (inhibition of LTB4 mediated calcium fluxes in human neutrophils); assay type: cell-based; conditions: Neutrophil; Fura2 labelled human neutrophils, 2.4 nM LTB4
Method: Human neutrophils are prepared from citrated or heparinized blood. The blood was diluted 1:1 with Hank's balanced salt solution (HBSS) minus calcium and magnesium and underlayed with 10 ml lymphocyte separation medium (Organon Teknika), followed by centrifugation at 500× g for 30 min., at room temperature. Supernatants are removed down to the red blood cell pellet. HBSS minus calcium and magnesium are added to give 25 ml. To this are added 25 ml 6% dextran in 0.85% NaCl. Samples are mixed and allowed to stand 20 min at room temperature. Supernatants are removed and centrifuged at 500× g for 5 min at 4° C. Pellets are resuspended with 20 ml 0.2% saline for 20 sec followed by the addition of 20 ml 1.6% saline. Samples are centrifuged at 500× g for 5 min at 4° C. The lysis is repeated and the cells (90-95% neutrophils) are resuspended at 2× 10^6 cell/ml in GEY's salt solution.
LTB4 induced changes in intracellular calcium concentration are measured using Fura2 labelled human neutrophils. Cells at a concentration of 2-5×10^6 /ml are labelled with 5 μM Fura2 for 30 minutes in Hank's balanced salt solution without calcium and magnesium. The cells are washed and resuspended at a final concentration of 1-2×10^7 cells/ml in Gey's solution. Calcium fluxes are initiated by the addition of 2.4 nM LTB4. Test compounds at appropriate concentrations are added to the cells just prior to the addition of LTB4. […] Fluorescence measurements are made in a Perkin Elmer model LS-5B spectrofluorimeter at a temperature setting of 37° C. Calcium concentrations are determined using the ratio method (ratio of cell fluorescence to media fluorescence).
When representative compounds of formula I of the invention were tested, the results set forth in Table H and expressed as inhibition of LTB4 mediated calcium fluxes in human neutrophils, were obtained.

[4] = biological target: T1, LTB4 Receptor (Homo sapiens, UniProt Q15722); assay: LTB4 Receptor Binding Assay (inhibition of 3H-LTB4 binding, human neutrophils); conditions: 0.5 nM 3H-LTB4, 45 minutes on ice, isolated human neutrophils
T1 construct: Isolated human neutrophils in Gey's salt solution; endogenous in cells; host or cells: human neutrophils isolated from blood (90-95% neutrophils)

[5] = test system: LTB4 -induced bronchoconstriction; assay: Guinea Pig Bronchoconstriction In Vivo (LTB4-induced); set-up: species or system guinea pig (Hartley strain); conditions: Cavia porcellus, po, read-out: ID50 (mg/kg), p.o., LTB4-induced bronchoconstriction
[6] = test system: myeloperoxidase activity in mucosal scrapings; assay: Acetic acid colitis (myeloperoxidase activity in mucosal scrapings); assay type: in vivo, Male Wistar rats; conditions: rat, 10 mg/kg twice daily for 3 days, N=10
Method: Male Wistar rats, weighing 175-225 g, are pretreated with test compound at 10 mg/kg, twice daily for 3 days (72 hours) prior to the evaluation of colitis. Colitis is induced after 2 days (48 hours) with an enema of 2 ml of 3.5% acetic acid; the acetic acid is neutralized after 10 seconds by 3 ml of phosphate-buffered saline, pH 7.4. After 3 days (72 hours), animals are sacrificed and myeloperoxidase activity in mucosal scrapings is determined as described in the skin inflammation model. Myeloperoxidase levels are presented as Units/gm mucosa.

[7] = oral, read-out: ID50, LTB4-induced skin inflammation, oral route

T1 sequence (Q15722 whole entry): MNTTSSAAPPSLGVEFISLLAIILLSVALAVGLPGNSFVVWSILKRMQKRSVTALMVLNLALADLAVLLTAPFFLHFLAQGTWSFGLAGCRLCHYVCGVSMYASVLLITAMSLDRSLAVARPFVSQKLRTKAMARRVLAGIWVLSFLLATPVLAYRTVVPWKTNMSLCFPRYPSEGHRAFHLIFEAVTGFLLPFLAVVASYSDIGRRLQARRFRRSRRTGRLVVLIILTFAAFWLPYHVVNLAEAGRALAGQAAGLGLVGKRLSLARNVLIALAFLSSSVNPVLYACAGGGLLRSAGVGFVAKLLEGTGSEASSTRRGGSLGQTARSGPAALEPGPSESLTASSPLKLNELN

Structure (SMILES) | ED50 ([1]; intravenous at the time of the intradermal LTB4 injection, read-out: ID50, LTB4-induced skin inflammation, intravenous administration) [mg/kg] | ED50 [1, 7] [mg/kg] | ID50, LTB4-induced skin inflammation, coinjection with LTB4 [1] [ng] | ED50 [2] [mg/kg] | IC50 [3] [nM] | Ki [4] [nM] | ED50 [5] [mg/kg] | % inhibition (myeloperoxidase, acetic acid colitis) [6] [%]
CCCc1c(OCCCCCOc2ccc(C(=O)c3cccc(C(=O)O)c3)cc2CCC(=O)O)ccc2c1OCCC2=O [Example 20, 5-[(3-Carboxyphenyl)carbonyl]-2-[5-[(3,4-dihydro-4-oxo-8-propyl-2H-1-benzopyran-7-yl)oxy]pentyloxy]benzenepropanoic Acid] | 6 | 30 | 100 | 1.46 | 1 | 2 |  | 
CCCc1c(OCCCCCCc2cccc(OCCCCC(=O)O)c2CCC(=O)O)ccc2c1OCCC2=O [Example 126, 2-(4-Carboxybutoxy)-6-[6-[(3,4-dihydro-4-oxo-8-propyl-2H-1-benzopyran-7-yl)oxy]hexyl]benzenepropanoic Acid] |  |  |  | 0.12 | 2 |  | 0.54 | 
CCCc1c(OCCCCCCc2cccc(CCCCCC(=O)O)c2CCC(=O)O)ccc2c1OCCC2=O [Example 169, 2-(2-Carboxyethyl)-3-[6-[(3,4-dihydro-4-oxo-8-propyl-2H-1-benzopyran-7-yl)oxy]hexyl]benzenehexanoic Acid] |  |  |  | 0.13 | 1 | 1 | 4.4 | 
CCCc1c(OCCCCCOc2ccccc2CCC(=O)O)ccc2c1OCCC2=O [Example 4, 2-[5-[(3,4-Dihydro-4-oxo-8-propyl-2H-1-benzopyran-7-yl)oxy]pentyloxy]benzenepropanoic Acid] |  |  |  | 0.66 | 26 |  | > 10 | 
CCCc1c(OCCCCCOc2cccc(OCCCCC(=O)O)c2CCC(=O)O)ccc2c1OCCC2=O [Example 62, 6-(4-Carboxybutoxy)-2-[5-[(3,4-dihydro-4-oxo-8-propyl-2H-1-benzopyran-7-yl)oxy]pentyloxy]benzenepropanoic Acid] |  |  | 35 | 2.06 |  | 0.8 |  | 
CCCc1c(OCCCCCCc2ccc(OCCCC(=O)O)cc2CCC(=O)O)ccc2c1OCCC2=O [Example 54, 5-(3-Carboxypropoxy)-2-[6-[(3,4-dihydro-4-oxo-8-propyl-2H-1-benzopyran-7-yl)oxy]hexyl]benzenepropanoic Acid] |  | 5 | 10 | 0.01 | 2 |  | 8.7 | 68
CCCc1c(OCCCCCCc2ccc(C(=O)c3cccc(C(=O)O)c3)cc2CCC(=O)O)ccc2c1OCCC2=O [Example 99, 5-[(3-Carboxyphenyl)carbonyl]-2-[6-[(3,4-dihydro-4-oxo-8-propyl-2H-1-benzopyran-7-yl)oxy]hexyl]benzenepropanoic Acid] |  |  | 20 |  |  | 1 |  | 
CCCc1c(OCCCCCCc2cccc(OCCCCCO)c2CCC(=O)O)ccc2c1OCCC2=O [Example 180, 2-[6-[(3,4-Dihydro-4-oxo-8-propyl-2H-1-benzopyran-7-yl)oxy]hexyl]-6-[(5-hydroxypentyl)oxy]benzenepropanoic Acid] |  |  |  | 0.14 | 1 | 1 | 4.8 | 
CCCc1c(OCCCCCOc2ccc(C(=O)CCCC(=O)O)cc2CCC(=O)O)ccc2c1OCCC2=O [Example 87, 3-(2-Carboxyethyl)-4-[5-[(3,4-dihydro-4-oxo-8-propyl-2H-1-benzopyran-7-yl)oxy]pentyloxy]-δ-oxobenzenepentanoic Acid] |  |  | 20 | 4.41 |  | 3 | > 10 | 
